Assay results: patent US10494380B2, “Nitrogen-containing tricyclic derivatives having HIV replication inhibitory activity” (priority 2015, dated 2019)
Like-named read-outs stand apart in the source and are kept apart here.

Assays:
Type in all cases: cell-based
HIV = conditions: EC50 in the presence of human serum (25%) versus without human serum, MT-4 cells
Method in brief: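 Compound is preincubated 1 h at room temperature with human serum, or with medium alone as the serum-free control. MT-4 cells infected with HIV (1 h, 37° C) are added and cultured 4 days. EC50 is determined with and without serum; their ratio gives the potency shift.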

HIV (HTLV-IIIB strain) = assay: HIV replication inhibition assay (Test Example 1; MT-4 cells, MTT); conditions: MT-4 cells, MTT; for EC90: read-out: EC90; for EC50: read-out: EC50
Description: HIV (HTLV-IIIB strain) persistent infected human T cell strain Molt-4 clone8 was cultured in RPMI-1640 medium supplemented with 10% fetal bovine serum and the supernatant was filtered, then the virus titer was measured and stored at −80° C. Each anti-human immunodeficiency virus active substance was diluted with the above culture medium to the designated concentration, which was dispensed into 96-well microtiter plate by 50 μL. Next, 100 μL of MT-4 cell suspension (2.5×10^4 cells) was dispensed into each well, then 50 μl of the above HIV-containing supernatant diluted with the above culture medium was added thereto (60 pfu (plaque forming unit)).
Cell mixture was cultured at 37° C. in CO2 incubator for four days, then 30 μL of MTT (3-(4,5-dimethylthiazole-2-yl)-2,5-diphenyltetrazolyum bromide) reagent (5 mg/mL in PBS) was added to all wells followed by incubation for 1 hour. In this step, MTT was reduced to insoluble formazan in living cells. To elute generated formazan 150 μL of the culture supernatant was removed from all wells, then 150 μL of cell lysis solution (10% Triton X-100 and 0.4% (v/v)-HCl containing isopropanol) was added thereto, followed by shaking with a plate mixer. The formazan was measured with micro plate reader at OD: 560 nm and 690 nm (reference wavelength) and the result was compared with the reference wells. EC50 and EC90 mean the compound concentration at which cytotoxicity caused by virus infection is inhibited 50% and 90%, respectively.

[1] = test system: T125A mutant virus (HIV-1 NL-432 recombinant molecular clone, IN gene); assay: HIV replication inhibition assay against integrase 124/125 mutant virus (Test Example 2)
Method in brief: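 MT-4 cells (2.5×10^4 per well) infected with 60 pfu of 293T-derived HIV-1 NL-432 clone carrying integrase 124/125 point mutations, in presence of compound, cultured 4 days at 37 °C. Viability by MTT formazan at 560/690 nm; EC50 = concentration inhibiting 50% of virus-induced cytotoxicity.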

[2] = Human immunodeficiency virus 1, MT4, 96 h, HIV (HTLV-IIIB strain), four days
[3] = Human immunodeficiency virus 1, MT4, 96 h, HIV HTLV-IIIB strain, cultured four days
[4] = Human immunodeficiency virus 1, MT4, read-out: EC50 against T125A mutant virus, T125A mutant virus (HIV-1 NL-432 IN gene), MT-4 cells, MTT
[5] = HIV (HTLV-IIIB strain), four days
[6] = T125A mutant virus (HIV-1 NL-432 IN gene), MT-4 cells, MTT, read-out: EC50 against T125A mutant virus

Row | Structure (SMILES) | Potency shift value (HIV) | EC90 (HIV (HTLV-IIIB strain); [2]) | EC50 (HIV (HTLV-IIIB strain); [3]) | EC50 [1, 4] | EC50 (HIV (HTLV-IIIB strain); [2]) | EC50 (HIV (HTLV-IIIB strain); [5]) | EC90 (HIV (HTLV-IIIB strain); [5]) | EC50 [1, 6]
1 | Cc1ccc(-c2c([C@H](OC(C)(C)C)C(=O)O)c(C)c3c4c2cc(C)n4CCN3CCN2C3CCC2COC3)cc1 [Compound I-172] | 2.3 | 5.4 nM | 3.5 nM | 16 nM |  |  |  | 
2 | Cc1ccc(-c2c([C@H](OC(C)(C)C)C(=O)O)c(C)c3c4c2cc(C)n4CCN3C)c(O)c1 (mixture of isomers) [Compound I-245] | 12 | 42 nM |  | 63 nM | 27 nM |  |  | 
3 | CCN1CCn2c(C)cc3c(-c4ccc(C)cc4)c([C@H](OC(C)(C)C)C(=O)O)c(C)c1c32 [Compound I-009] | 38 | 1.6 nM |  | 14 nM | 0.98 nM |  |  | 
4 | Cc1ccc(-c2c([C@H](OC(C)(C)C)C(=O)O)c(C)c3c4c2cc(C)n4CCN3c2ncc(C3CCN(C)CC3)cn2)cc1 [Compound I-213] | 3.9 |  |  |  |  | 12 nM | 19 nM | 31 nM
5 | Cc1c([C@H](OC(C)(C)C)C(=O)O)c(-c2ccc(Cl)cc2)c2cc(C)n3c2c1N(c1ncc(OCCO)cn1)CC3 [Compound I-254] | 10 | 13 nM |  | 17 nM | 7.9 nM |  |  | 
6 | COc1cnc(N2CCn3c(C)cc4c(-c5ccc(C)cc5O)c([C@H](OC(C)(C)C)C(=O)O)c(C)c2c43)nc1 [Compound I-205] | 32 |  |  |  |  | 16 nM | 35 nM | 63 nM
7 | Cc1ccc(-c2c([C@H](OC(C)(C)C)C(=O)O)c(C)c3c4c2cc(C)n4CCN3c2ncc(OCC3COC3)cn2)cc1 [Compound I-268] | 19 | 2.1 nM |  | 4.8 nM | 1.5 nM |  |  | 
8 | Cc1c([C@H](OC(C)(C)C)C(=O)O)c(-c2ccc(Cl)cc2)c2cc(C)n3c2c1NC(=O)C3 [Compound I-016] | 8.6 | 13 nM |  | 42 nM | 8.7 nM |  |  | 
9 | Cc1ccc(-c2c([C@H](OC(C)(C)C)C(=O)O)c(C)c3c4c2cc(C)n4CCN3c2ncc(O[C@@H]3CCN(C)C3)cn2)cc1 [Compound I-279] | 3.5 | 7.7 nM |  | 13 nM | 5.1 nM |  |  | 
10 | Cc1ccc(-c2c([C@H](OC(C)(C)C)C(=O)O)c(Cl)c3c4c2cc(C)n4CCN3CCN(C)C)cc1 [Compound I-265] | 2.5 | 30 nM |  | 44 nM | 13 nM |  |  | 
11 | COCCCOc1cnc(N2CCn3c(C)cc4c(-c5ccc(Cl)cc5)c([C@H](OC(C)(C)C)C(=O)O)c(C)c2c43)nc1 [Compound I-255] | 22 | 2.4 nM |  | 5.1 nM | 1.6 nM |  |  | 
12 | [2H]C([2H])([2H])Oc1cnc(N2CCn3c(C)cc4c(-c5ccc(C)cc5)c([C@H](OC(C)(C)C)C(=O)O)c(C)c2c43)nc1 [Compound I-266] | 23 | 2.1 nM |  | 3.7 nM | 1.3 nM |  |  | 
13 | Cc1ccc(-c2c([C@H](OC(C)(C)C)C(=O)O)c(C)c3c4c2cc(C)n4CCN3c2ncc(C)cn2)cc1 [Compound I-235] | 46 |  |  | 2.8 nM | 1.6 nM |  |  | 
14 | Cc1c([C@H](OC(C)(C)C)C(=O)O)c(-c2ccc(Cl)cc2)c2cc(C)n3c2c1N(C(=O)CN(C)C)CC3 [Compound I-017] | 4.5 | 31 nM |  | 94 nM | 20 nM |  |  | 
15 | Cc1ccc(-c2c([C@H](OC(C)(C)C)C(=O)O)c(C)c3c4c2cc(C)n4CCN3c2ncc(OCF)cn2)cc1 [Compound I-282] | 36 | 2.1 nM |  | 4 nM | 1.4 nM |  |  | 
16 | Cc1ccc(-c2c([C@H](OC(C)(C)C)C(=O)O)c(C)c3c4c2cc(C)n4CCN3CCO)cc1 [Compound I-021] | 5.4 | 7.5 nM |  | 22 nM | 5.2 nM |  |  | 
17 | Cc1ccc(-c2c([C@H](OC(C)(C)C)C(=O)O)c(C)c3c4c2cc(C(F)(F)F)n4CCN3C)cc1 [Compound I-007] | 49 | 3.6 nM |  | 18 nM | 2 nM |  |  | 
18 | CC(=O)N1CCn2c(C)cc3c(-c4ccc(Cl)cc4)c([C@H](OC(C)(C)C)C(=O)O)c(C)c1c32 [Compound I-025] | 11 | 3.1 nM |  | 13 nM | 2.3 nM |  |  | 
19 | Cc1c([C@H](OC(C)(C)C)C(=O)O)c(-c2ccc(Cl)cc2)c2cc(C)n3c2c1N(c1ncc(N2CCOCC2)cn1)CC3 [Compound I-246] | 23 | 2.5 nM |  | 4.5 nM | 2.3 nM |  |  | 
20 | CC(=O)N1CCn2c(C)cc3c(-c4ccc(C)cc4)c([C@H](OC(C)(C)C)C(=O)O)c(C)c1c32 [Compound I-014] | 8.7 | 2.2 nM |  | 15 nM | 1.6 nM |  |  | 
21 | COc1cnc(N2CCn3c(C)cc4c(-c5c(F)cc(C)cc5F)c([C@H](OC(C)(C)C)C(=O)O)c(C)c2c43)nc1 [Compound I-230] | 24 | 3.3 nM |  | 6.7 nM | 1.8 nM |  |  | 
22 | Cc1ccc(-c2c([C@H](OC(C)(C)C)C(=O)O)c(C)c3c4c2cc(C(F)F)n4CCN3C)cc1 [Compound I-024] | 22 | 2.1 nM |  | 7.7 nM | 1.6 nM |  |  | 
23 | Cc1ccc(-c2c([C@H](OC(C)(C)C)C(=O)O)c(C)c3c4c2cc(C)n4CCN3c2ncc(N3CCN(C)CC3)cn2)cc1 [Compound I-204] | 3.6 |  |  |  |  | 4.1 nM | 5.8 nM | 9.5 nM
24 | Cc1ccc(-c2c([C@H](OC(C)(C)C)C(=O)O)c(C)c3c4c2cc(C)n4CCN3c2ccc(C)nn2)cc1 [Compound I-287] | 12 | 2.2 nM |  | 5.1 nM | 1.4 nM |  |  | 
25 | COc1cnc(N2CCn3c(C)cc4c(-c5ccc(C)cc5)c([C@H](OC(C)(C)C)C(=O)O)c(Cl)c2c43)nc1 [Compound I-226] | 26 |  |  |  |  | 1.2 nM | 1.6 nM | 3.6 nM
26 | Cc1ccc(-c2c([C@H](OC(C)(C)C)C(=O)O)c(C)c3c4c2cc(C)n4CCN3CCN2CCCO2)cc1 [Compound I-170] | 3.5 | 5.2 nM | 3.1 nM | 18 nM |  |  |  | 
27 | CNCC(=O)N1CCn2c(C)cc3c(-c4ccc(Cl)cc4)c([C@H](OC(C)(C)C)C(=O)O)c(C)c1c32 [Compound I-018] | 6.8 | 100 nM |  |  | 83 nM |  |  | 
